SMILES strings stand for the structures.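 Following 48 hours of exposure in 96-well plates, responses at five concentrations were used to interpolate endpoints linearly. TGI: concentration producing complete growth inhibition.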

Some test systems named below: SF-268 CNS; KM12 colon; OVCAR-4 ovarian; M14 melanoma; CAKI-1 renal; A498 renal; UACC-257 melanoma; MCF7 breast; HCT-15 colon; NCI-H226 lung; OVCAR-3 ovarian; HCC-2998 colon; OVCAR-8 ovarian; RPMI-8226 leukemia; SW-620 colon; NCI/ADR-RES ovarian; ACHN renal; OVCAR-5 ovarian; U251 CNS; SNB-19 CNS.
Experiment in all cases: NCI-60 cell line screen, 48 h

Consider `COc1ccc(/C=C2\Sc3nnc(CNc4ccc(Cl)cc4)n3N=C2c2cc(F)c(Cl)cc2Cl)cc1OC`, for which the TGI in the assay on SF-268 CNS is over 100 µM; in the assay with KM12 colon it was over 100 µM; with OVCAR-4 ovarian, over 100 µM; in the assay with M14 melanoma it was over 100 µM; in the assay on CAKI-1 renal, 80.5 µM; in the assay with A498 renal, over 100 µM. The TGI in the assay on UACC-257 melanoma, in the assay on MCF7 breast, with HCT-15 colon, in the assay with NCI-H226 lung, in the assay on OVCAR-3 ovarian and with HCC-2998 colon was over 100 µM in each case. Besides, the TGI in the assay on OVCAR-8 ovarian was over 100 µM; in the assay on RPMI-8226 leukemia, 42.2 µM; in the assay with SW-620 colon, 36.9 µM; in the assay on NCI/ADR-RES ovarian, 52.3 µM; in the assay on ACHN renal, over 100 µM; with OVCAR-5 ovarian, over 100 µM. The TGI with U251 CNS was over 100 µM.
Consider `CC1(C)C2CC3C4CC5(Nc6ccccc6C5N41)[C@]3(C)CC2=O` (some centres undefined), for which the TGI in the assay with SF-268 CNS, in the assay with KM12 colon, with OVCAR-4 ovarian, with CAKI-1 renal, in the assay with A498 renal and in the assay with UACC-257 melanoma was over 50 µM in each case. Also, the TGI in the assay with MCF7 breast, in the assay with HCT-15 colon, in the assay with NCI-H226 lung, in the assay with OVCAR-3 ovarian, with HCC-2998 colon and in the assay with OVCAR-8 ovarian was over 50 µM in each case. Besides, the TGI with RPMI-8226 leukemia, with SW-620 colon, in the assay with NCI/ADR-RES ovarian, in the assay with ACHN renal, in the assay with OVCAR-5 ovarian and in the assay on U251 CNS was over 50 µM in each case.
With `CN(C)c1ccc(-c2ccc(N(C)C)c3n[se]nc23)c2n[se]nc12`, the TGI in the assay on SF-268 CNS, with KM12 colon, with OVCAR-4 ovarian, with CAKI-1 renal, in the assay with A498 renal and in the assay with UACC-257 melanoma was over 100 µM each time. Besides, the TGI with MCF7 breast, with HCT-15 colon, in the assay with NCI-H226 lung, with OVCAR-3 ovarian, in the assay with HCC-2998 colon and in the assay with OVCAR-8 ovarian was over 100 µM throughout. Moreover, the TGI in the assay on RPMI-8226 leukemia, with SW-620 colon, in the assay with NCI/ADR-RES ovarian, in the assay on ACHN renal, in the assay on OVCAR-5 ovarian and with U251 CNS was over 100 µM in each case.
Turning to `[O-][N+]1=NC(c2ccccc2)=C1c1ccccc1`, the TGI in the assay with SF-268 CNS, with KM12 colon, in the assay on OVCAR-4 ovarian, in the assay with M14 melanoma, in the assay on CAKI-1 renal and in the assay with A498 renal was over 50 µM in each case. The TGI in the assay with UACC-257 melanoma, in the assay on MCF7 breast, in the assay on HCT-15 colon, in the assay with NCI-H226 lung, in the assay with OVCAR-3 ovarian and in the assay on OVCAR-8 ovarian was over 50 µM in each case. In addition, the TGI in the assay with RPMI-8226 leukemia, in the assay with SW-620 colon, in the assay with NCI/ADR-RES ovarian, with SNB-19 CNS, with ACHN renal and with OVCAR-5 ovarian was over 50 µM each time. The compound further showed a TGI in the assay with U251 CNS of over 50 µM.
With `O=C(O)CNn1c(SCC(=O)O)nnc(/C=C/c2c(O)ccc3ccccc23)c1=O`, the TGI in the assay on SF-268 CNS is 97.3 µM; with KM12 colon it was over 100 µM; with OVCAR-4 ovarian, over 100 µM; with M14 melanoma, 43.5 µM; in the assay with CAKI-1 renal, over 100 µM; with A498 renal it was over 100 µM. Besides, the TGI in the assay on UACC-257 melanoma is over 100 µM; in the assay with MCF7 breast, over 100 µM; with HCT-15 colon, over 100 µM; in the assay with OVCAR-3 ovarian, over 100 µM; in the assay with HCC-2998 colon, over 100 µM; in the assay with OVCAR-8 ovarian it was 28.6 µM. Also, the TGI was over 100 µM with RPMI-8226 leukemia; over 100 µM in the assay on SW-620 colon; 67.9 µM in the assay on NCI/ADR-RES ovarian; over 100 µM with SNB-19 CNS; over 100 µM in the assay with ACHN renal; over 100 µM in the assay on OVCAR-5 ovarian. In the assay with U251 CNS, this compound returned a TGI of over 100 µM.
Take `COc1cc([C@@]23OC[C@@H]4[C@@H](OC[C@@H]42)c2cc4c(cc23)OCO4)cc(OC)c1OC`: the TGI is over 100 µM with SF-268 CNS; over 100 µM in the assay on KM12 colon; over 100 µM in the assay on OVCAR-4 ovarian; over 100 µM in the assay on M14 melanoma; over 100 µM with CAKI-1 renal; 15.1 µM in the assay on A498 renal. For the same compound, the TGI is over 100 µM in the assay on UACC-257 melanoma; over 100 µM in the assay with MCF7 breast; over 100 µM in the assay on HCT-15 colon; 0.0241 µM in the assay on HCC-2998 colon; over 100 µM with OVCAR-8 ovarian; over 77.1 µM with RPMI-8226 leukemia. Besides, the TGI in the assay with SW-620 colon is over 100 µM; with NCI/ADR-RES ovarian, under 0.01 µM; with SNB-19 CNS it was over 100 µM; in the assay on ACHN renal it was over 100 µM; in the assay on OVCAR-5 ovarian, over 100 µM; in the assay with U251 CNS, over 74.5 µM.
Consider `O=C(CN1CCOCC1)c1ccc2c(c1)oc(=O)n2CCN1CCCC1`, for which the TGI in the assay with SF-268 CNS, with KM12 colon, in the assay with M14 melanoma, in the assay with CAKI-1 renal, with A498 renal and with UACC-257 melanoma was over 100 µM throughout. For the same compound, the TGI with MCF7 breast, in the assay on HCT-15 colon, in the assay with NCI-H226 lung, in the assay with OVCAR-3 ovarian, in the assay on OVCAR-8 ovarian and in the assay on RPMI-8226 leukemia was over 100 µM throughout. Moreover, the TGI in the assay on SW-620 colon, in the assay with NCI/ADR-RES ovarian, with SNB-19 CNS, with ACHN renal, in the assay on OVCAR-5 ovarian and in the assay with U251 CNS was over 100 µM each time.

The record behind these values is PubChem BioAssay (NCI).
